Assay results reported in patent publication US10052306B2 (LUC THERAPEUTICS, INC., priority 2013, dated 2018).
Like-named read-outs stand apart in the source and are kept apart here.

Experiments:
[1] = target: NR1/NR2B (Homo sapiens (Human), UniProt Q05586+Q13224); assay: Cell assay: FDSS Ca2+ influx inhibition in HEK293 cells expressing NR1/NR2B; conditions: Binned Activity, HEK293 cells expressing NR1/NR2B, Ca2+ influx; binned NR2B NAM IC50;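 further: Fluo-8 Ca2+ signal read on Hamamatsu FDSS 6000 after glutamate, glycine and Ca2+ challenge following 10 min compound preincubation, end/baseline fluorescence ratio compared with MK801 control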
[2] = target: NR1/NR2B (Homo sapiens (Human), UniProt Q13224); assay: as above; conditions: HEK293 cells expressing NR1/NR2B, Ca2+ influx
[3] = read-out: Binned Activity, binned NR2B NAM IC50

NR1/NR2B (Homo sapiens (Human), UniProt Q05586+Q13224), sequence (Q13224 27-1484, other chains not shown): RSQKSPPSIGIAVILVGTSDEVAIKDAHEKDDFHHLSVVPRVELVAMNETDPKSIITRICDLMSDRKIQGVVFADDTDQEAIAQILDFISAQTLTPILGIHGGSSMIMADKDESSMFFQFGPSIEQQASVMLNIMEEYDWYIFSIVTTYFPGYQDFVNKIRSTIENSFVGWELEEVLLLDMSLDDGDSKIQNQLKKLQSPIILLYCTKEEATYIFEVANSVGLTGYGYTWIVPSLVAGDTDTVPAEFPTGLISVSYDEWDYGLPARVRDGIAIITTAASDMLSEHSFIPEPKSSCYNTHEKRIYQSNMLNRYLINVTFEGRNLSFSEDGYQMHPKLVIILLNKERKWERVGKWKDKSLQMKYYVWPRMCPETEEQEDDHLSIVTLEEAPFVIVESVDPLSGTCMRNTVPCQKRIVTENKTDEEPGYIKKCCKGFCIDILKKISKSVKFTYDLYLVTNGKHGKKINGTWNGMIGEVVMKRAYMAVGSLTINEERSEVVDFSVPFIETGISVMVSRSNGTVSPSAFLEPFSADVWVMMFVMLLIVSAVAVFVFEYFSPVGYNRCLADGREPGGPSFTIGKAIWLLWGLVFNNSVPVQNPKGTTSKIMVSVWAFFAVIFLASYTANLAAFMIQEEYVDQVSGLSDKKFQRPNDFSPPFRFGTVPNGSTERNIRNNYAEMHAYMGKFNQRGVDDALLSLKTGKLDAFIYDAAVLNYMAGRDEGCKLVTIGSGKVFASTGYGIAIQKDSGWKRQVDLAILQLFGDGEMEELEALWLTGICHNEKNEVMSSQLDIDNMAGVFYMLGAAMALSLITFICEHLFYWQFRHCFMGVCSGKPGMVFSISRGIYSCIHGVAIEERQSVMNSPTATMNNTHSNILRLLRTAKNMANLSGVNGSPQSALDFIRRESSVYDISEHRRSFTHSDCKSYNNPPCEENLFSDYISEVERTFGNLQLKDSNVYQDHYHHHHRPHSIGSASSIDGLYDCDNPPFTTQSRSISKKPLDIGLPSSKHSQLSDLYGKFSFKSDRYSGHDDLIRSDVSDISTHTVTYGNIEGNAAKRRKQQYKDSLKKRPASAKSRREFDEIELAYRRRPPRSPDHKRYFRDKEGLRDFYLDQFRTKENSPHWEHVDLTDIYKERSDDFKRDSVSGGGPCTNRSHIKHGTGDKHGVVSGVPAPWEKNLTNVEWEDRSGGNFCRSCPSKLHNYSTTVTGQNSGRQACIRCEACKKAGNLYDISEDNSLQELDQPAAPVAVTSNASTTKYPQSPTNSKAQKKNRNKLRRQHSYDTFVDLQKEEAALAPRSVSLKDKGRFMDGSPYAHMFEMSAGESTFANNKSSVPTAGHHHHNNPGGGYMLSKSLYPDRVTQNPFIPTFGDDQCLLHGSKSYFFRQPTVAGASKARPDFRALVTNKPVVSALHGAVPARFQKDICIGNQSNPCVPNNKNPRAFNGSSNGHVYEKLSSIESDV
NR1/NR2B (Homo sapiens (Human), UniProt Q13224), sequence (Q13224 27-1484, other chains not shown): as above

SMILES | IC50 [1] | IC50 ([2]; read-out: NR2B NAM IC50) | IC50 [2, 3]
O=C(CN1C[C@@H]2C[C@@](O)(Cc3ccccc3)C[C@@H]2C1)c1cccc(-c2ccc(O)cc2)c1 [Example 275, 2-((3aR,5r,6aS)-5-benzyl-5-hydroxyhexahydrocyclo-penta[c]pyrrol-2(1H)-yl)-1-(4′-hydroxy-[1,1′-biphenyl]-3-yl)ethanone] | > 10 µM | 10 µM | –
O=C(COc1ccc(C(=O)CN2C[C@@H]3C[C@@](O)(Cc4ccccc4)C[C@@H]3C2)cc1F)c1ccc(O)c(F)c1 [Example 172, 2-((3aR,5r,6aS)-5-benzyl-5-hydroxyhexahydrocyclo-penta[c]pyrrol-2(1H)-yl)-1-(3-fluoro-4-(2-(3-fluoro-4-hydroxyphenyl)-2-oxoethoxy)phenyl)ethanone] | > 10 µM | 10 µM | –
Cc1cccc(-c2cccc(C(=O)CN3C[C@@H]4C[C@@](O)(Cc5ccccc5)C[C@@H]4C3)c2)c1 [Example 276, 2-((3aR,5r,6aS)-5-benzyl-5-hydroxyhexahydrocyclo-penta[c]pyrrol-2(1H)-yl)-1-(3′-methyl-[1,1′-biphenyl]-3yl)ethanone] | > 10 µM | 10 µM | –
Cc1ccccc1-c1cccc(C(=O)CN2C[C@@H]3C[C@@](O)(Cc4ccccc4)C[C@@H]3C2)c1 [Example 278, 2-((3aR,5r,6aS)-5-benzyl-5-hydroxyhexahydrocyclo-penta[c]pyrrol-2(1H)-yl)-1-(2′-methyl-[1,1′-biphenyl]-3-yl)ethanone] | > 10 µM | 10 µM | –
O=C(CN1C[C@@H]2C[C@](O)(Cc3ccccc3)C[C@@H]2C1)c1ccc(O)cc1 [Example 290, 2-((3aR,5r,6aS)-5-benzyl-5-hydroxyhexahydrocyclo-penta[c]pyrrol-2(1H)-yl)-1-(4-hydroxyphenyl)ethanone] | < 0.1 µM | 0.0766 µM | –
Cc1cccc(N2C[C@@H]3C[C@@](O)(c4ccccc4)C[C@@H]3C2)n1 [Example 85, 2-(6-methylpyridin-2-yl)-5-phenyl-octahydrocyclopenta[c] pyrrol-5-ol] | > 10 µM | 10 µM | –
O=C(CN1C[C@@H]2C[C@@](O)(Cc3ccccc3)C[C@@H]2C1)c1ccc(-c2cccnc2)cc1 [Example 267, 2-((3aR,5r,6aS)-5-benzyl-5-hydroxyhexahydrocyclo-penta[c]pyrrol-2(1H)-yl)-1-(4-(pyridin-3-yl)phenyl)ethanone] | > 10 µM | 10 µM | –
Cc1ccc(NC(=O)N2C[C@@H]3C[C@@](O)(Cc4ccccc4)C[C@@H]3C2)c(C)c1 [Example 121, (3aR,5r,6aS)-5-benzyl-N-(2,4-dimethylphenyl)-5-hydroxyhexahydrocyclo-penta[c]pyrrole-2(1H)-carboxamide] | > 10 µM | 10 µM | –
O=C(CN1C[C@H]2C[C@@H](Cc3ccccc3)C[C@H]2C1)c1ccc(O)c(F)c1 [Example 307, 2-[(3aR,5S,6aS)-5-benzyl-octahydrocyclopenta[c]pyrrol-2-yl]-1-(3-fluoro-4-hydroxyphenyl) ethan-1-one] | < 0.1 µM | 0.0412 µM | –
O=C(CN1CC2(C1)CC(O)(Cc1ccccc1)C2)c1ccc(O)cc1 [Example 342, 2-(6-benzyl-6-hydroxy-2-azspiro[3.3]heptan-2-yl)-1-(4-hydroxyphenyl)ethanone] | 1 to 10 µM | 2.67 µM | –
O=C(CN1C[C@@H]2C[C@@](O)(Cc3ccccc3)C[C@@H]2C1)c1cccc(-c2cccc(F)c2)c1 [Example 271, 2-((3aR,5r,6aS)-5-benzyl-5-hydroxyhexahydrocyclo-penta[c]pyrrol-2(1H)-yl)-1-(3′-fluoro-[1,1′-biphenyl]-3-yl)ethanone] | > 10 µM | 10 µM | –
COc1cccc(NC(=O)N2C[C@@H]3C[C@@](O)(Cc4ccccc4)C[C@@H]3C2)c1 [Example 119, (3aR,5r,6aS)-5-benzyl-5-hydroxy-N-(3-methoxy-phenyl)hexahydro-cyclopenta[c]pyrrole-2(1H)-carboxamide] | > 10 µM | 10 µM | –
O=C(Nc1ccccc1C(F)(F)F)N1C[C@@H]2C[C@@](O)(Cc3ccccc3)C[C@@H]2C1 [Example 127, (3aR,5r,6aS)-5-benzyl-5-hydroxy-N-(2-(trifluoromethyl)phenyl) hexahydrocyclopenta[c] pyrrole-2(1H)-carboxamide] | > 10 µM | 10 µM | –
O=C(CN1C[C@H]2C[C@@H](c3ccccc3)C[C@H]2C1)c1ccc(O)cc1 [Example 114, 1-(4-hydroxyphenyl)-2-(5-phenylhexahydrocyclo-penta[c]pyrrol-2(1H)-yl)ethanone] | 0.1 to 1 µM | 0.232 µM | –
O=C(Nc1cccc(C(F)(F)F)c1)N1C[C@@H]2C[C@@](O)(c3ccccc3)C[C@@H]2C1 [Example 5, 5-hydroxy-5-phenyl-N-[3-(trifluoromethyl)phenyl]-octahydrocyclopenta[c] pyrrole-2-carboxamide] | > 10 µM | 10 µM | –
Oc1ccc([C@@H](O)CN2C[C@@H]3C[C@@](O)(Cc4ccccc4)C[C@@H]3C2)nc1 [Example 1646, (3aR,5S,6aS)-5-benzyl-2-((S)-2-hydroxy-2-(5-hydroxypyridin-2-yl)ethyl)octahydrocyclo-penta[c]pyrrol-5-ol] | < 0.1 µM | 0.0381 µM | –
Cc1ccc(NC(=O)N2C[C@@H]3C[C@@](O)(Cc4ccccc4)C[C@@H]3C2)cc1 [Example 125, (3aR,5r,6aS)-5-benzyl-5-hydroxy-N-(p-tolyl) hexahydrocyclopenta [c]pyrrole-2(1H)-carboxamide] | > 10 µM | 10 µM | –
O=C(CN1C[C@@H]2C[C@@](O)(Cc3ccc(C(F)(F)F)cc3)C[C@@H]2C1)c1ccc(O)cc1 [Example 219, 2-[(3aR,5R,6aS)-5-hydroxy-5-{[4-(trifluoromethyl)phenyl]methyl}-octahydrocyclopenta[c]pyrrol-2-yl]-1-(4-hydroxyphenyl)ethan-1-one] | 0.1 to 1 µM | 0.125 µM | –
Oc1ccc([C@H](O)CN2C[C@@H]3C[C@](F)(Cc4ccccc4)C[C@@H]3C2)cc1 [Example 315, 4-((S)-2-((3aR,5R,6aS)-5-benzyl-5-fluoro-hexahydrocyclopen-ta[c]pyrrol-2(1H)-yl)-1-hydroxyethyl)phenol] | 0.1 to 1 µM | 0.324 µM | –
Cc1cccc(-c2ccc(C(=O)CN3C[C@@H]4C[C@@](O)(Cc5ccccc5)C[C@@H]4C3)cc2)c1 [Example 264, 2-((3aR,5r,6aS)-5-benzyl-5-hydroxyhexahydrocyclo-penta[c]pyrrol-2(1H)-yl)-1-(3′-methyl-[1,1′-biphenyl]-4-yl)ethanone] | > 10 µM | 10 µM | –
O=C(Nc1cccc(C(F)(F)F)c1)N1C[C@H]2C[C@@H](c3ccccc3)C[C@H]2C1 [Example 105, 5-phenyl-N-[3-(trifluoromethyl)phenyl]-octahydrocyclopenta[c] pyrrole-2-carboxamide] | > 10 µM | 10 µM | –
Oc1ccc(C(O)CN2C[C@H]3C[C@@H](c4ccccc4)C[C@H]3C2)cc1 (stereo partly drawn) [Example 115, 4-(1-hydroxy-2-(5-phenylhexahydrocyclo-penta[c]pyrrol-2(1H)-yl)ethyl)phenol] | > 10 µM | 10 µM | –
COc1cccc(C[C@]2(O)C[C@H]3CN(CC(=O)c4ccc(O)c(F)n4)C[C@H]3C2)c1 [Example 200, 1-(6-fluoro-5-hydroxypyridin-2-yl)-2-((3aR,5r,6aS)-5-hydroxy-5-(3-methoxy-benzyl)hexahydro-cyclopenta[c]pyrrol-2(1H)-yl)ethanone] | > 10 µM | 10 µM | –
Cc1ccc(NC(=O)N2C[C@H]3C[C@@H](c4ccccc4)C[C@H]3C2)c(C)c1 [Example 110, N-(2,4-dimethylphenyl)-5-phenyl-octahydrocyclopenta[c] pyrrole-2-carboxamide] | > 10 µM | 10 µM | –
COc1ccc(-c2cccc(C(=O)CN3C[C@@H]4C[C@@](O)(Cc5ccccc5)C[C@@H]4C3)c2)cc1 [Example 263, 2-((3aR,5r,6aS)-5-benzyl-5-hydroxyhexahydrocyclo-penta[c]pyrrol-2(1H)-yl)-1-(4′-methoxy-[1,1′-biphenyl]-3-yl)ethanone] | > 10 µM | 10 µM | –
O=C(CN1C[C@@H]2C[C@@](O)(Cc3ccccc3)C[C@@H]2C1)c1cccc(-c2ccccc2)c1 [Example 268, 1-([1,1′-biphenyl]-3-yl)-2-((3aR,5r,6aS)-5-benzyl-5-hydroxyhexahydrocyclo-penta[c]pyrrol-2(1H)-yl)ethanone] | > 10 µM | 10 µM | –
OC(CN1C[C@@H]2CC(O)(Cc3ccccc3)C[C@@H]2C1)c1ccc(F)cc1 (mixture of isomers) [Example 289, rac-(3aR,5r,6aS)-5-benzyl-2-(2-(4-fluorophenyl)-2-hydroxyethyl)octahydro-cyclopenta[c]pyrrol-5-ol] | – | 10 µM | > 10 µM
O=C(CN1CC2CC(CCc3ccccc3)CC2C1)c1ccc(O)cc1 (stereo not drawn) [Example 323, 1-(4-hydroxyphenyl)-2-(5-phenethyl-hexahydrocyclo-penta[c]pyrrol-2(1H)-yl)ethanone] | – | 0.426 µM | 0.1 to 1 µM
O=C(CN1CC2CC(Cc3ccccc3)CC2C1)c1ccc(O)cn1 (stereo not drawn) [Example 297, 2-{5-benzyl-octahydrocyclopenta[c]pyrrol-2-yl}-1-(5-hydroxypyridin-2-yl)ethan-1-one] | – | 0.792 µM | 0.1 to 1 µM
O=C(CN1CC2CC(O)(c3ccccc3)CC2C1)c1ccccc1 (stereo not drawn) [Example 57, 2-(5-hydroxy-5-phenylhexahydrocyclo-penta[c]pyrrol-2(1H)-yl)-1-phenylethanone] | – | 10 µM | > 10 µM
